These results are taken from patent US10722582B2, “Targeted antimicrobial photodynamic therapy” (Purdue Research Foundation, priority 2018, dated 2020).

Marks after values point to notes of the source that are not given here.

For one test, the system named is S. epidermis (ATCC 155). As to the kind of experiment: aPDI with CFL irradiation (406 nm), planktonic bacteria, drop-plate colony count. Format: cell-based, Staphylococcus epidermidis. To be noted: for potency relative to dark toxicity (0 min exposure): 15 min CFL, 3-log reduction. The procedure: (§1) All bacterial strains were cultured at 37° C. in an aerobic atmosphere unless otherwise noted. […] Bacterial counts were estimated in units of cfu/mL by plating serial dilutions onto agar plates, followed by incubation for 16 hours at 37° C. […] Further details and variations on iron-deficient culture conditions are provided in Supporting Information.
(§2) Antimicrobial assays were performed on planktonic bacteria at 10^7 cfu/mL with variable exposure times to CFL irradiation, followed by plating on agar and incubation at 37° C. […] The irradiated bacteria were plated onto agar in serial tenfold dilutions (10^7-10^1 cfu/mL); controls included one set of wells without photosensitizer, and one set of wells with photosensitizer but without 15 min irradiation, prior to plating (dark toxicity). Bacterial counts were determined by the drop-plate method using TS-agar plates, and reported in colony-forming units per milliliter (cfu/mL).
(§3) The irradiation source consisted of a 20-W compact fluorescent lightbulb (CFL; Sunlite SL20/BLB) housed in an ellipsoidal reflector dome.

Test [1] relates to S. aureus (PCI 1203). As to the kind of experiment: Competitive hemin uptake assay (fluorescence microscopy). The format is cell-based, Staphylococcus aureus. To be noted: for Fluorescence after 15 min / Fluorescence after 15 min exposure + 1 equiv. hemin: Fe-deficient conditions (TS media containing 3 mM bipy), no background subtraction. The procedure:
To elucidate the relevant structural features for the specific uptake of Ga-PpIX by S. aureus, we performed a competitive uptake assay using one equivalent of hemin against Ga-PpIX, PpIX, and eleven other fluorescent PpIX derivatives, with evaluation by fluorescence microscopy after 15 minutes of co-incubation (FIG. 5 and Table 4). These studies were partly guided by insights taken from the X-ray structures of hemin and Ga-PpIX within the binding pocket of IsdH: (i) coordination of the metal center by an apical tyrosine residue; (ii) the flanking of vinyl groups on pyrrole rings A and B against nearby aromatic residues; and (iii) the extension and presumed hydration of the propionyl groups (rings C and D) outside of the binding pocket.
Bacteria were cultured and assayed in iron-deficient media unless otherwise noted. A stock solution of Ga-PpIX (14.6 μM) was prepared by dispersing 5 mg in 1 mL of 10% DMSO in PBS for 10 minutes in an ultrasonic cleaning bath protected from light, followed by filtration and 10× dilution in PBS just prior to use. Bacterial suspensions (0.5 mL) were treated with freshly prepared solutions of PpIX derivatives for specified periods (5-15 min), then harvested by centrifugation at 5.2 g for 5 minutes, redispersed twice in 0.5 mL deionized water, and centrifuged a third time. A 10-μL aliquot of concentrated bacteria was deposited onto a glass slide and dried in air for 20 min, then imaged by fluorescence microscopy as described above. For details on fluorescence image processing and quantitative analysis, see Supporting Information.
S. aureus (PCI 1203; ATCC 10537) was first cultured in standard TS broth, then in media containing 3 mM bipyridine. Bacteria were pelleted and washed with PBS buffer three times, then resuspended to a final concentration of 10^8 cfu/mL. Stock solutions of hemin and PpIX derivatives 1-13 were prepared at initial concentrations of 292 μM; hemin and fluorescent PpIX solutions were mixed in a 1:1 ratio (0.5 mL), then added to 0.5 mL of bacterial suspension and allowed to sit for 15 min at room temperature. For control studies, hemin or fluorophore solutions were substituted with PBS to maintain constant […]. Bacteria were harvested and washed as described above, then evaluated by fluorescence microscopy for relative uptake efficiency.
Darkfield and fluorescent images were acquired in succession, with the former used to map regions of interest (ROIs) by tracing the outlines of bacteria (FIG. 8). Three images were acquired for each sample; in each case, the tracing map was overlaid onto the fluorescence image to calculate pixel intensities within each ROI, using the mean pixel intensity for quantitative analysis. Bacteria were also imaged without treatment with PpIX analogs, most of which produced values close to that of background except for Salmonella enterica, which served as the upper limit of autofluorescence (cf. FIG. 4). Data collection and image analyses were performed by the same user to ensure consistency for comparative analysis.

The test system of test [2] is S. aureus (PCI 1203; ATCC 10537). As to the kind of experiment: aPDI with CFL irradiation (406 nm), planktonic bacteria, drop-plate colony count. Format: cell-based, Staphylococcus aureus. The note with it: for potency relative to dark toxicity (0 min exposure): 3-log reduction. The procedure:
The aPDI properties of Ga-PpIX were compared against PpIX, whose photosensitizer activities are well known and whose optical profile is similar to that of Ga-PpIX (FIG. 2).
as §1, §2, §3

The subject of test [3] is S. aureus (PCI 1203). As to the kind of experiment: Competitive hemin uptake assay (fluorescence microscopy). To be noted: standard conditions (TS media); no background subtraction. The format is cell-based, Staphylococcus aureus.
In the next test the test system is S. aureus. The test is described as follows: Antibacterial activity assay with LED light. Format: cell-based, Staphylococcus aureus. The procedure: Antibacterial activity assay general protocol: Used LED light to test conditions. Bacteria were grown in TS broth, followed by 3 mM bipyridine in TS broth until log phase. Bacteria were then diluted with PBS, to OD 0.1 (˜10^) and then to ˜10^7 cfu/mL. 100 uL of bacteria were placed in 96 well plates with the appropriate GaPpIX concentration. 2× serial dilutions were then done to obtain other GaPpIX concentrations. Each concentration was done in triplicate. Bacteria were left incubating and irradiating for different amount of times at different light powers or left in the dark. 10× Serial dilutions were done and bacteria were plated for colony counting using the drop-plate technique. Colonies were counted after 24 hours. As reported herein, a 3-log reduction equals measurable antimicrobial action; a 6-log reduction equals total eradication.
Stock solution preparation (AVM-3-36, 10 nm AgNP). Prepared a solution of (AVM-2-273) GaPpIX-apoHb 1 mg/mL in MP H2O, deaerated. Took 10 mL of 10 nm AgNPs, centrifuged at 900 G for 5 min (Beckman, 3100 RPM), took supernantant and added 200 uL of GaPpIXHb. After overnight, centrifuged 3000 RPM g for 5 minutes (Beckman). Took supernantant and centrifuged using a 100 K CentriCon tube at 4000 RPM for 5 minutes, 3×. Added 15 mM borate buffer to NPs. Based on calibration curve, the stock solution is 1.94 ug/mL AgNP, so stock: 79 μg/mL AgNP, 10.37 μg/mL GaPpIXHb, 0.446 μg/mL GaPpIX (refer to AVM-2-293A and AVM-3-3).
The following antibacterial activity measurements were assayed in the presence of AgNP.

Where [4] appears, read: 0 min (dark), no irradiation (dark toxicity).
The mark [5] stands for this setting: one equivalent of hemin, 15 minutes of co-incubation.
The mark [6] stands for this setting: 15 min CFL 406 nm, 12.4 mW/cm^2 (11.2 J/cm^2).

In the case of `C=CC1=C(C)c2cc3[nH]c(cc4nc(cc5[nH]c(cc1n2)c(C)c5CCC(=O)O)C(CCC(=O)O)=C4C)c(C)c3C=C` [PpIX (2), PpIX, reference compound], the “Antimicrobial activity (minimum 3-log CFU reduction)” value in the test on S. epidermis (ATCC 155) (setting [4]) was over 146 μM; in the test with S. epidermis (ATCC 155) (0 min (dark), no irradiation (dark toxicity), listed as PpIX) it was >146^d μM; with S. epidermis (ATCC 155) (15 min CFL (11.2 J/cm^2)), 4.5 μM; in the test with S. epidermis (ATCC 155) (15 min CFL (11.2 J/cm^2), listed as PpIX) it was 4.6 μM; in test [2] (setting [4]), 36 μM; in test [2] (setting [6]), 1.1 μM. Besides, the “Eradication (6 log reduction)” value in the test with S. epidermis (ATCC 155) (15 min CFL (11.2 J/cm^2)) is given as 9 μM; in the test with S. epidermis (ATCC 155) (No irradiation (dark toxicity)) it was over 146 μM; in test [2] (15 min CFL (11.2 J/cm^2)), 2.3 μM; in test [2] (No irradiation (dark toxicity)), 73 μM. The figures for the “potency relative to dark toxicity (0 min exposure)” value (with S. epidermis (ATCC 155); in test [2] (15 min CFL)) were over 32x and 32x, respectively. For the same compound, the “Fluorescence after 15 min” value with S. aureus (PCI 1203) [1] was 16.70 a.u; in the test with S. aureus (PCI 1203) [3] it was 11.90 a.u. For the same compound, the “Fluorescence after 15 min exposure + 1 equiv. hemin” value in the test on S. aureus (PCI 1203) [1] is given as 9.4 a.u; with S. aureus (PCI 1203) [3] it was 10.15 a.u. In addition, in the test on S. aureus (PCI 1203) [1] (setting [5]), the “effect of hemin competition on uptake” value is “moderately affected by hemin”. The “concentration for 3-log reduction (measurable antimicrobial action)” value in the test on S. aureus is 940 nM. The “concentration for 6-log reduction (total eradication)” value in the test with S. aureus worked out at 1900 nM.
For the compound Ga(III)-protoporphyrin [Ga-PpIX (1)], the “Antimicrobial activity (minimum 3-log CFU reduction)” value is on record as 146 μM with S. epidermis (ATCC 155) (setting [4]); 0.57 μM with S. epidermis (ATCC 155) (15 min CFL (11.2 J/cm^2)); over 60 μM in test [2] (setting [4]); 3.75 μM in test [2] (5 min CFL 406 nm, 12.4 mW/cm^2 (3.7 J/cm^2)); 0.47 μM in test [2] (setting [6]). For the same compound, the “Eradication (6 log reduction)” value stood at 1.1 μM in the test with S. epidermis (ATCC 155) (15 min CFL (11.2 J/cm^2), listed as Ga-PpIX); 4.5 μM with S. epidermis (ATCC 155) (15 min CFL (11.2 J/cm^2), listed as GaPpIX (1)); 146 μM in the test with S. epidermis (ATCC 155) (No irradiation (dark toxicity)); 15 μM in test [2] (5 min CFL (3.7 J/cm^2)); 7.5 μM in test [2] (15 min CFL (11.2 J/cm^2)); 120 μM in test [2] (No irradiation (dark toxicity)). In addition, the “potency relative to dark toxicity (0 min exposure)” value is reported as 256x in the test with S. epidermis (ATCC 155), over 16x in test [2] (5 min CFL) and over 128x in test [2] (15 min CFL). The compound further displayed a bactericidal activity in the test on S. epidermis (ATCC 155) (CFL irradiation, clinical isolate from a skin lesion) of 570 nM. Moreover, the “Fluorescence after 15 min” value in the test with S. aureus (PCI 1203) [1] was 42.55 a.u; in the test with S. aureus (PCI 1203) [3] it was 18.09 a.u. Besides, the “Fluorescence after 15 min exposure + 1 equiv. hemin” value amounted to 10.0 a.u with S. aureus (PCI 1203) [1] and 15.08 a.u in the test with S. aureus (PCI 1203) [3]. Moreover, the “reduction in fluorescence by competition with hemin” value with S. aureus (PCI 1203) [1] (setting [5]) was “greater than 80%”. Also, the “concentration for >99.9% reduction” value in test [2] (15 minutes of CFL irradiation) was 470 nM. Also, the “increase in potency relative to Ga-PpIX dark toxicity (>99.9% reduction)” value in test [2] (15 minutes of CFL irradiation) amounted to 128 fold. In addition, the “increase in potency relative to Ga-PpIX dark toxicity (total eradication, >6 log reduction)” value in test [2] (15 minutes of CFL irradiation) is listed as 16 fold. For the same compound, the “concentration for 3-log reduction (measurable antimicrobial action)” value in the test on S. aureus stood at 59 nM. Besides, the “concentration for 6-log reduction (total eradication)” value with S. aureus stood at 235 nM.
